One assay relates to HeLa. Briefly: Compound was tested for tumor cell growth inhibition against HeLa cell line. It counts as functional. As to conditions: Homo sapiens, read-out: ID50 (the source's name).
The test system of the next assay is HL-60. Description: Compound was tested for tumor cell growth inhibition against HL 60 cell line. It counts as functional. As to conditions: Homo sapiens, read-out: ID50 (the source's name).

On to `CCN(CC)CC(=O)Nc1ccc(O)c2c1C(=O)c1c(O)ccc(O)c1C2=O`, for which the IC50 with HeLa came to 26.1 µM; in the assay on HL-60 it was 1640 nM.
In the same order, the values of `CCN(CC)CCC(=O)Nc1ccc(NC(=O)CCN(CC)CC)c2c1C(=O)c1c(O)ccc(O)c1C2=O` are 3.14 µM and 100 nM.
In the same order, the values of `O=C1c2c(O)ccc(O)c2C(=O)c2c(NCCNCCO)ccc(NCCNCCO)c21` [MITOXANTRONE] are 2.77 µM and 90 nM.
Taken in the same sequence, the figures for `CCN(CC)CC(=O)Nc1ccc(NC(=O)CN(CC)CC)c2c1C(=O)c1c(O)ccc(O)c1C2=O` were more than 38 µM and 4900 nM.
Turning to `CCN(CC)CCC(=O)Nc1ccc(O)c2c1C(=O)c1c(O)ccc(O)c1C2=O`, the values for the IC50 in the assay on HeLa and in the assay on HL-60 were 8.05 µM and 110 nM, respectively.

The values are drawn from ChEMBL document CHEMBL1150507, “New hydroxy-amido-anthraquinones as potential antineoplastic drugs” (1992).
